Results reported in US20130059866A1, “NOVEL PIPERIDINO-DIHYDROTHIENOPYRIMIDINE SULFOXIDES AND THEIR USE FOR TREATING COPD AND ASTHMA” (BOEHRINGER INGELHEIM INTERNATIONAL GMBH, priority 2011, published 2013).

Columns and labels:
[1] = molecular target: T1, PDE4B (Homo sapiens, UniProt Q07343); assay: PDE4B Scintillation Proximity (SPA) Assay; assay type: biochemical; settings: PDE4B active site fragment amino acids 152-484, [3H]cAMP, 30° C., one hour; read-out: Experimentally determined IC50-value for PDE4B inhibition
T1 construct: active site fragment comprising the amino acids 152-484
From the text: The IC50-values of the compounds of the invention (Example Compounds 1 and 2) and of the above-mentioned prior art compounds A to D with respect to their PDE4B-inhibiting ability have been determined with a Scintillation Proximity (SPA) Assay (GE Healthcare, No. TRKQ7090).
The Scintillation Proximity (SPA) Assay is based on the detection of the different affinities of the cyclic 3′-5′-adenosine monophosphate (cAMP, low affinity) and the linear 5′-adenosine monophosphate (AMP, high affinity) to yttrium-silicate-scintilator beads. The cAMP-specific phosphodiesterase (PDE) PDE4B cleaves the 3′-phosphodiester bond of the tritium-labelled-[^3H]cAMP to the [^3H]5′-AMP. This [^3H]5′-AMP associates with the scintillator beads because of their higher affinity and causes scintillations (light flashes) which can be measured in a Wallac Microbeta Scintillation Counter.
10 μl of a [^3H]cAMP-solution (0.05 μCi in H2O, 10-30 Ci/mmol) are added to 89 μl of a PDE4B-enzyme-solution (active site fragment comprising the amino acids 152-484; 0.15-0.18 ng) in assay buffer (50 mM Tris HCl pH 7.5; 8.3 mM MgCl2; 1.7 mM ethylene glycol tetraacetic acid (EGTA); 0.25 mg/ml bovine serum albumin (BSA)) and this mixture is incubated at 30° C. for one hour
a) without the compound to be tested (in the presence of 1 μl dimethylsulfoxide (DMSO), corresponding to 1% DMSO) and b) in the presence of the compound to be tested in a concentration of 125 μM, 25 μM, 5 μM, 1 μM, 200 nM, 40 nM, 8 nM, 1.6 nM, 0.32 nM, 0.064 nM, 0.0128 nM (dilution series in 5er-steps beginning from 125 μM until 0.0128 nM, in the presence of 1% DMSO).
After this incubation the reaction is stopped by the addition of 50 μl of bead-solution (500 mg beads/35 ml H2O, 18 mM zinc sulfate). In the following 45 minutes the beads have the opportunity to form a sediment. After that the scintillations are measured in the scintillation counter. If the tested compound is able to inhibit the enzymatic activity of the PDE4B-enzyme, less [^3H]AMP depending on the concentration of the tested compound is produced and less scintillations are measurable. […] The IC50-value stands for the compound concentration at which the PDE4B enzyme activity is inhibited to a half maximal value. Therefore the lower the IC50-value is the better is the PDE4B inhibition.

[2] = test system: conscious rats; assay: Gastric emptying in conscious rats (barium sulfate test meal); assay type: in vivo, rat
Method: (§1) In order to evaluate whether the compounds of the present invention lead to gastrointestinal side effects the compounds of the invention have been administered to rats 30 minutes before the rats were fed with a test meal comprising barium sulfate. After that it was tested whether gastric emptying and/or gastrointestinal transit in these rats was affected by the presence of these compounds.
The effects of the compounds Example 1 and Example 2 on gastric emptying and gastrointestinal transit in conscious rats has been investigated as described below. Wistar rats of both sexes weighing 130-160 g (ages: male 7 wk, female 8 wk) were used. The animals are obtained from an approved local distributor, a minimum of four days quarantine is required before use, during which time the animals are maintained under routine animal care procedures. Groups of up to 5 animals are housed in cages in a room with controlled temperature and humidity and a light/dark cycle with the lights on from 6 a.m. to 6 p.m. The animals have access to normal rodent chow and water ad libitum. The animals are transported to the laboratory on the day of experimentation. Gastric emptying as well as small intestinal propulsion are determined using a barium sulfate test meal.
Five rats Crl:WI(Han) of each sex (n=10) were used. The animals were deprived of food 17 h prior to the experiment but allowed free access to water. The drug under investigation (drug was suspended to the concentration of 10 ml/kg body weight in 0.5% Natrosol solution) or the negative control (vehicle alone was given 10 ml/kg body weight) was administered 30 min (p.o.) before the test meal at doses calculated to be 3-fold, 10-fold or 30-fold the ED50 found in efficacy studies in the rat.
The test meal (suspension of 7.5 g barium sulfate in 10 ml salt-free water) is given orally by gavage at a dose of 2 ml/100 g body weight. Thirty minutes after the administration of the test meal the animals were killed in deep isoflurane anaesthesia by cervical dislocation. The stomach and the intestine were then exposed by laparatomy and removed.
The removed stomach was weighed, then incised, the contents removed and the empty stomach is weighed again.
The gastric content was calculated from the weight difference between the filled and empty stomach and normalized to 100 g body weight. Thus, an increase in weight difference indicated an impaired gastric emptying, whereas a decrease in weight difference indicated an enhanced gastric emptying.
Data are expressed as mean±standard deviation (SD). For each dose, comparisons were performed using an analysis of variance (ANOVA) and a post hoc Dunnett test to compare the various groups to the controls when the ANOVA was significant. p<0.05 was considered significant.

[3] = test system: conscious rats; assay: Gastrointestinal (intestinal) transit in conscious rats (barium sulfate test meal); assay type: in vivo, rat; settings: all tested doses up to the 30-fold ED50 dose p.o.
Method: as §1
The effects of the compounds Example 1 and Example 2 on gastric emptying and gastrointestinal transit in conscious rats has been investigated as described below. Wistar rats of both sexes weighing 130-160 g (ages: male 7 wk, female 8 wk) were used. […] Gastric emptying as well as small intestinal propulsion are determined using a barium sulfate test meal. […]
The length of gut traversed with barium sulfate in relation to the whole length of the gut is determined by direct measurements using a ruler.
The length of gut traversed with barium sulphate (as judged by visual inspection) in relation to the whole length of the gut (from the pylorus to the rectum) is determined by direct measurements using a ruler.
Intestinal transit is calculated as the percentage movement of barium sulphate in the intestine in relation to the whole length of the gut. […]
Data are expressed as mean±standard deviation (SD). […]

[4] = test system: LPS-induced neutrophil influx into bronchoalveolar lavage fluid of male Wistar rats; assay: Inhibition of LPS-induced neutrophil influx into bronchoalveolar lavage fluid (LPS-induced lung inflammation model); assay type: in vivo; settings: ED50 found in efficacy studies in the rat
Method: The anti-inflammatory activity of Examples 1 and 2 and of Prior art compounds A and D was assessed in an in vivo LPS-induced lung inflammation model in rats.
As a measure of the pharmacological potency of the above mentioned compounds the half-maximal effective dose (ED50) in regard to the inhibition of lipopolysaccharide-induced (LPS-induced) neutrophil influx into the bronchoalveolar lavage fluid (BALF) was determined by assessing the dose response relationship. Bacterial endotoxins (lipopolysaccharides [LPS]) are components of the outer bacterial cell membrane which play an important role in the pathogenesis of infections with gram-negative bacteria. It is known that inhalation of such aerosolized LPS induces a dose-dependent increase in neutrophils to lung tissues and airspaces in rats which may be detected by analyzing the amount of neutrophils in the bronchoalveolar lavage fluid (BALF). […]
Determination of neutrophil content of the BALF was performed using an ADVIA 120 blood hemacytometer (Bayer Diagnostics). Neutrophil data were normalised (Positive Control (=LPS treatment alone)=100%, Negative Control (no LPS treatment, administration of “vehicle only”)=0%) and expressed as percent of LPS control. The ED50 was calculated using a nonlinear fit (with the Graph Pad Prism software and a sigmoidal dose response fit). […]

T1 sequence (Q07343 324-656): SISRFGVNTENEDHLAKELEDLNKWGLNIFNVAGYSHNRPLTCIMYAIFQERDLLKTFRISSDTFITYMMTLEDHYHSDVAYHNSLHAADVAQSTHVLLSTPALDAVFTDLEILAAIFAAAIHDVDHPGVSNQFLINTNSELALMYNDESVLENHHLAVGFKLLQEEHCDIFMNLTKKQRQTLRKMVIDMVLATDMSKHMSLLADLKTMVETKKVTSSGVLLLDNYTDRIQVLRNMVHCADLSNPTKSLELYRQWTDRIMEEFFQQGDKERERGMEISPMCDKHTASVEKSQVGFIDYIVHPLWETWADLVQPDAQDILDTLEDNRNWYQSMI

| SMILES | IC50 [1] [nM] | intestinal transit vs negative control [3] | ED50 as restated in the dose table of the gastrointestinal study [4] | further results |
| --- | --- | --- | --- | --- |
| [O-][S+]1CCc2nc(N3CCC(c4ccncc4)CC3)nc(NC3(CO)CC3)c21 (centres unmarked) [Prior art compound C] | 44 | – | – | – |
| [O-][S+]1CCc2nc(N3CCC(c4ccc(Cl)cc4)CC3)nc(NC3(CO)CC3)c21 (centres unmarked) [Prior art compound A] | 3.3 | – | – | – |
| [O-][S+]1CCc2nc(N3CCC(c4cccc(Cl)c4)CC3)nc(NC3(CO)CC3)c21 (centres unmarked) [Prior art compound D] | 7.3 | – | – | – |
| [O-][S+]1CCc2nc(N3CCC(c4c[nH]cn4)CC3)nc(NC3(CO)CC3)c21 (centres unmarked) [Prior art compound B] | 66 | – | – | – |
| [O-][S+]1CCc2nc(N3CCC(c4ccc(Cl)cc4)CC3)nc(NC3(CO)CCC3)c21 (single isomer, unassigned) [Example 1] | 4.3 | no significant differences | (ED50 = 0.31 mg/kg BW | gastric emptying vs negative control ([2]; 3-fold ED50 dose p.o., 30 min before test meal): no relevant differences; gastric emptying vs negative control ([2]; 10-fold ED50 dose p.o., 30 min before test meal): no relevant differences; gastric emptying vs negative control (weight difference per body weight) ([2]; 30-fold ED50 dose p.o., 30 min before test meal): only a very moderate enhancement |
| [O-][S+]1CCc2nc(N3CCC(c4ncc(Cl)cn4)CC3)nc(NC3(CO)CCC3)c21 (single isomer, unassigned) [Example 2] | 7.2 | no relevant differences | (ED50 = 0.1 mg/kg BW | gastric emptying vs negative control ([2]; all tested doses (3-, 10-, 30-fold ED50) p.o.): no relevant differences |
